{"source": "patent US8680052B1", "about": "“Methods of treating, reducing the incidence of, and/or preventing ischemic events” (The Medicines Company, priority 2013, dated 2014)", "tested_on": "patients with acute coronary syndromes undergoing PCI", "key": {"[1]": {"details": "48-hour, MITT Without STEMI, exploratory"}}, "note": "Where two headings read alike, the source gives them in different places.", "protocol": "Patients were eligible for enrollment if they had stable angina, unstable angina, or non-ST-segment elevation (NSTE) MI with obstructive coronary artery disease and were scheduled to undergo PCI.\nThe infusion began within 30 minutes prior to PCI and continued for at least 2 hours or until the conclusion of the index procedure, whichever was longer. At the treating physician's discretion, the infusion could be continued for 4 hours.\nAll patients received aspirin 75-325 mg per local site standards. Adjunctive anticoagulants (unfractionated heparin, low molecular weight heparin, bivalirudin, or fondaparinux) and the procedural use of glycoprotein IIb/IIIa inhibitors were determined by the treating physician.\nThe primary efficacy endpoint was the 48-hour composite of all-cause mortality, MI, or ischemia-driven revascularization. Prespecified secondary efficacy endpoints included the composite of mortality or MI at 48 hours and 30 days; the composite of mortality, MI, or ischemia-driven revascularization at 30 days; the components of the composite endpoints at 48 hours and 30 days; stroke at 48 hours; abrupt closure, threatened abrupt closure, need for urgent coronary artery bypass grafting, or unsuccessful procedure during the index PCI; acute (24 hours) and 48 hours stent thrombosis; and all-cause mortality at 6 months and 1 year.\nRates of MI and ischemia-driven revascularization up to 30 days following the index procedure were assessed. Ischemia-driven revascularization was defined as symptoms of myocardial ischemia leading to urgent (within 24 hours of the last episode of ischemia) revascularization, which must have occurred after the index procedure concluded (i.e., guidewire removal). New electrocardiographic changes, acute pulmonary edema, ventricular arrhythmias, or hemodynamic instability could also constitute evidence of ischemia.\nMI was defined by a new Q wave (duration >0.03 seconds) in two contiguous electrocardiographic leads or elevations in creatine kinase (CK) and CK-MB, including a rise of CK-MB≧3 times the local upper limit or normal and, when biomarkers were elevated prior to PCI, an additional 50% above baseline. One baseline troponin measurement was required for patients undergoing urgent PCI. Measurements of CK-MB were obtained at 2, 10, 17, and 24 hours post-PCI.\nThe primary efficacy analysis was to be determined in the modified intent-to-treat (mITT) population, defined as all randomized patients (excluding STEMI cohort) who received at least one dose of study drug and underwent the index PCI. The safety population consisted of all randomized patients who received any study drug. Patients in the safety analyses were assigned to a treatment arm based on treatment received, not as randomized.", "data": [{"compound": "COC(=O)[C@H](c1ccccc1Cl)N1CCc2sccc2C1", "note": "[Clopidogrel, clopidogrel, reference compound]", "values": [{"measurement": "All-cause mortality", "setting": "48-hour, MITT Without STEMI", "value": "5 (0.1)"}, {"measurement": "IDR", "setting": "48-hour, MITT Without STEMI", "value": "23 (0.6)"}, {"measurement": "MI", "setting": "48-hour, MITT Without STEMI", "value": "256 (6.6)"}, {"measurement": "Mortality/MI/IDR (primary endpoint)", "setting": "48-hour, MITT Without STEMI", "value": "276 (7.1)"}, {"measurement": "Q-wave MI", "setting": "48-hour, MITT Without STEMI", "value": "10 (0.3)"}, {"measurement": "Stent thrombosis", "setting": "48-hour, MITT Without STEMI", "value": "11 (0.3)"}, {"measurement": "Stroke", "setting": "48-hour, MITT Without STEMI", "value": "7 (0.2)"}, {"measurement": "Mortality/Q-wave MI/IDR", "setting": "[1]", "value": "34 (0.9)"}, {"measurement": "Mortality/Q-wave MI/Stent thrombosis", "setting": "[1]", "value": "23 (0.6)"}, {"measurement": "All-cause mortality", "setting": "48 hours, ITT", "value": "11 (0.2) no. (%)"}, {"measurement": "IDR", "setting": "48 hours, ITT", "value": "31 (0.7) no. (%)"}, {"measurement": "MI", "setting": "48 hours, ITT", "value": "265 (6.0) no. (%)"}, {"measurement": "Mortality/MI/IDR", "setting": "48 hours, ITT", "value": "297 (6.7) no. (%)"}, {"measurement": "Mortality/Q-wave MI/IDR", "setting": "48 hours, ITT", "value": "48 (1.1) no. (%)"}, {"measurement": "Mortality/Q-wave MI/Stent thrombosis", "setting": "48 hours, ITT", "value": "33 (0.7) no. (%)"}, {"measurement": "Q-wave MI", "setting": "48 hours, ITT", "value": "10 (0.2) no. (%)"}, {"measurement": "Stent thrombosis", "setting": "48 hours, ITT", "value": "15 (0.3) no. (%)"}, {"measurement": "Stroke", "setting": "48 hours, ITT", "value": "8 (0.2) no. (%)"}, {"measurement": "All-cause mortality", "setting": "48 hours, ITT With STEMI", "value": "5 (1.0) no. (%)"}, {"measurement": "IDR", "setting": "48 hours, ITT With STEMI", "value": "8 (1.6) no. (%)"}, {"measurement": "MI", "setting": "48 hours, ITT With STEMI", "value": "9 (1.8) no. (%)"}, {"measurement": "Mortality/MI/IDR", "setting": "48 hours, ITT With STEMI", "value": "20 (3.9) no. (%)"}, {"measurement": "Mortality/Q-wave MI/IDR", "setting": "48 hours, ITT With STEMI", "value": "13 (2.6) no. (%)"}, {"measurement": "Mortality/Q-wave MI/Stent thrombosis", "setting": "48 hours, ITT With STEMI", "value": "9 (1.8) no. (%)"}, {"measurement": "Q-wave MI", "setting": "48 hours, ITT With STEMI", "value": "0 (0.0) no. (%)"}, {"measurement": "Stent thrombosis", "setting": "48 hours, ITT With STEMI", "value": "4 (0.8) no. (%)"}, {"measurement": "Stroke", "setting": "48 hours, ITT With STEMI", "value": "1 (0.2) no. (%)"}, {"measurement": "All-cause mortality", "setting": "48 hours, ITT Without STEMI", "value": "6 (0.2) no. (%)"}, {"measurement": "IDR", "setting": "48 hours, ITT Without STEMI", "value": "23 (0.6) no. (%)"}, {"measurement": "MI", "setting": "48 hours, ITT Without STEMI", "value": "256 (6.5) no. (%)"}, {"measurement": "Mortality/MI/IDR", "setting": "48 hours, ITT Without STEMI", "value": "277 (7.1) no. (%)"}, {"measurement": "Mortality/Q-wave MI/IDR", "setting": "48 hours, ITT Without STEMI", "value": "35 (0.9) no. (%)"}, {"measurement": "Mortality/Q-wave MI/Stent thrombosis", "setting": "48 hours, ITT Without STEMI", "value": "24 (0.6) no. (%)"}, {"measurement": "Q-wave MI", "setting": "48 hours, ITT Without STEMI", "value": "10 (0.3) no. (%)"}, {"measurement": "Stent thrombosis", "setting": "48 hours, ITT Without STEMI", "value": "11 (0.3) no. (%)"}, {"measurement": "Stroke", "setting": "48 hours, ITT Without STEMI", "value": "7 (0.2) no. (%)"}, {"measurement": "All-cause mortality", "setting": "48 hours, MITT", "value": "9 (0.2) no. (%)"}, {"measurement": "IDR", "setting": "48 hours, MITT", "value": "30 (0.7) no. (%)"}, {"measurement": "MI", "setting": "48 hours, MITT", "value": "264 (6.1) no. (%)"}, {"measurement": "Mortality/MI/IDR", "setting": "48 hours, MITT", "value": "293 (6.8) no. (%)"}, {"measurement": "Mortality/Q-wave MI/IDR", "setting": "48 hours, MITT", "value": "45 (1.0) no. (%)"}, {"measurement": "Mortality/Q-wave MI/Stent thrombosis", "setting": "48 hours, MITT", "value": "31 (0.7) no. (%)"}, {"measurement": "Q-wave MI", "setting": "48 hours, MITT", "value": "10 (0.2) no. (%)"}, {"measurement": "Stent thrombosis", "setting": "48 hours, MITT", "value": "15 (0.3) no. (%)"}, {"measurement": "Stroke", "setting": "48 hours, MITT", "value": "7 (0.2) no. (%)"}, {"measurement": "All-cause mortality", "setting": "48 hours, MITT With STEMI", "value": "4 (0.9) no. (%)"}, {"measurement": "IDR", "setting": "48 hours, MITT With STEMI", "value": "7 (1.6) no. (%)"}, {"measurement": "MI", "setting": "48 hours, MITT With STEMI", "value": "8 (1.8) no. (%)"}, {"measurement": "Mortality/MI/IDR", "setting": "48 hours, MITT With STEMI", "value": "17 (3.8) no. (%)"}, {"measurement": "Mortality/Q-wave MI/IDR", "setting": "48 hours, MITT With STEMI", "value": "11 (2.5) no. (%)"}, {"measurement": "Mortality/Q-wave MI/Stent thrombosis", "setting": "48 hours, MITT With STEMI", "value": "8 (1.8) no. (%)"}, {"measurement": "Q-wave MI", "setting": "48 hours, MITT With STEMI", "value": "0 (0.0) no. (%)"}, {"measurement": "Stent thrombosis", "setting": "48 hours, MITT With STEMI", "value": "4 (0.9) no. (%)"}, {"measurement": "Stroke", "setting": "48 hours, MITT With STEMI", "value": "0 (0.0) no. (%)"}, {"measurement": "All-cause mortality", "setting": "48 hours, MITT Without STEMI", "value": "5 (0.1) no. (%)"}, {"measurement": "IDR", "setting": "48 hours, MITT Without STEMI", "value": "23 (0.6) no. (%)"}, {"measurement": "MI", "setting": "48 hours, MITT Without STEMI", "value": "256 (6.6) no. (%)"}, {"measurement": "Mortality/MI/IDR (Prespecified primary endpoint)", "setting": "48 hours, MITT Without STEMI", "value": "276 (7.1) no. (%)"}, {"measurement": "Mortality/Q-wave MI/IDR", "setting": "48 hours, MITT Without STEMI", "value": "34 (0.9) no. (%)"}, {"measurement": "Mortality/Q-wave MI/Stent thrombosis", "setting": "48 hours, MITT Without STEMI", "value": "23 (0.6) no. (%)"}, {"measurement": "Q-wave MI", "setting": "48 hours, MITT Without STEMI", "value": "10 (0.3) no. (%)"}, {"measurement": "Stent thrombosis", "setting": "48 hours, MITT Without STEMI", "value": "11 (0.3) no. (%)"}, {"measurement": "Stroke", "setting": "48 hours, MITT Without STEMI", "value": "7 (0.2) no. (%)"}, {"measurement": "primary composite of all-cause mortality, MI, or ischemia-driven revascularization", "setting": "48 hours, MITT Without STEMI", "value": 7.1, "unit": "%"}, {"measurement": "All-cause mortality", "setting": "48 hours, Safety population", "value": "9 (0.2) no. (%)"}, {"measurement": "IDR", "setting": "48 hours, Safety population", "value": "30 (0.7) no. (%)"}, {"measurement": "MI", "setting": "48 hours, Safety population", "value": "265 (6.1) no. (%)"}, {"measurement": "Mortality/MI/IDR", "setting": "48 hours, Safety population", "value": "294 (6.7) no. (%)"}, {"measurement": "Mortality/Q-wave MI/IDR", "setting": "48 hours, Safety population", "value": "45 (1.0) no. (%)"}, {"measurement": "Mortality/Q-wave MI/Stent thrombosis", "setting": "48 hours, Safety population", "value": "31 (0.7) no. (%)"}, {"measurement": "Q-wave MI", "setting": "48 hours, Safety population", "value": "10 (0.2) no. (%)"}, {"measurement": "Stent thrombosis", "setting": "48 hours, Safety population", "value": "15 (0.3) no. (%)"}, {"measurement": "Stroke", "setting": "48 hours, Safety population", "value": "7 (0.2) no. (%)"}, {"measurement": "All-cause mortality", "setting": "30 days, ITT", "value": "47 (1.1) no. (%)"}, {"measurement": "IDR", "setting": "30 days, ITT", "value": "69 (1.6) no. (%)"}, {"measurement": "MI", "setting": "30 days, ITT", "value": "293 (6.7) no. (%)"}, {"measurement": "Mortality/MI/IDR", "setting": "30 days, ITT", "value": "373 (8.5) no. (%)"}, {"measurement": "Mortality/Q-wave MI/IDR", "setting": "30 days, ITT", "value": "119 (2.7) no. (%)"}, {"measurement": "Mortality/Q-wave MI/Stent thrombosis", "setting": "30 days, ITT", "value": "82 (1.9) no. (%)"}, {"measurement": "Q-wave MI", "setting": "30 days, ITT", "value": "15 (0.3) no. (%)"}, {"measurement": "Stent thrombosis", "setting": "30 days, ITT", "value": "30 (0.7) no. (%)"}, {"measurement": "All-cause mortality", "setting": "30 days, ITT With STEMI", "value": "16 (3.2) no. (%)"}]}]}
